Reference: ChEMBL document CHEMBL5226310, “Synthesis and Characterization of Novel Mono- and Bis-Guanyl Hydrazones as Potent and Selective ASIC1 Inhibitors Able to Reduce Brain Ischemic Insult” (J Med Chem, 2021)
Calls of active or inactive are those of the source. The rule behind the calls is not given here.

How the values were obtained:
[1] = molecular target: T1, Acid-sensing ion channel 1 (Homo sapiens, UniProt P78348); assay: Inhibition of human ASIC1a in HEK293 cells assessed as inward proton-gated current at pH 6.0 incubated with compound followed by PcTx1 addition by patch-clamp electrophysiology; format: cell-based
T1 sequence (P78348 whole entry): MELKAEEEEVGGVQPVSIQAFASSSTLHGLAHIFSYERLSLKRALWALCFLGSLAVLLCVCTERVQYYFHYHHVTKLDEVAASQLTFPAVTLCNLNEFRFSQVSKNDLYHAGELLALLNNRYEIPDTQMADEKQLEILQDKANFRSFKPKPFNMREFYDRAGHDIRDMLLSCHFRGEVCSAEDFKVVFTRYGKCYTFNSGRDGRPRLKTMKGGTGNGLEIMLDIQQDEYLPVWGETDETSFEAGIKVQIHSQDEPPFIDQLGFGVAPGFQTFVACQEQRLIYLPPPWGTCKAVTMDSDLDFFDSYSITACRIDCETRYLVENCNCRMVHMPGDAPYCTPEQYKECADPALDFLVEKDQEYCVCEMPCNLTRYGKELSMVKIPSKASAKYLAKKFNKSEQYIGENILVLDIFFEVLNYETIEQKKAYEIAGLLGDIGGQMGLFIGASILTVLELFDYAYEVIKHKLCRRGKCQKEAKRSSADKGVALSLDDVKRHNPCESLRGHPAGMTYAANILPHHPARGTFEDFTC

[2] = molecular target: T2, Acid-sensing ion channel 1 (Mus musculus) (UniProt Q6NXK8); assay: Inhibition of mouse ASIC1a expressed in genetically engineered-CHO-K1 cells at 10 uM preincubated for 10 mins at pH 7.4 followed by cell stimulation with proton injection at pH 6.5 by electro-chromic fluorescence voltage sensor-based assay relative to control
T2 sequence (whole entry): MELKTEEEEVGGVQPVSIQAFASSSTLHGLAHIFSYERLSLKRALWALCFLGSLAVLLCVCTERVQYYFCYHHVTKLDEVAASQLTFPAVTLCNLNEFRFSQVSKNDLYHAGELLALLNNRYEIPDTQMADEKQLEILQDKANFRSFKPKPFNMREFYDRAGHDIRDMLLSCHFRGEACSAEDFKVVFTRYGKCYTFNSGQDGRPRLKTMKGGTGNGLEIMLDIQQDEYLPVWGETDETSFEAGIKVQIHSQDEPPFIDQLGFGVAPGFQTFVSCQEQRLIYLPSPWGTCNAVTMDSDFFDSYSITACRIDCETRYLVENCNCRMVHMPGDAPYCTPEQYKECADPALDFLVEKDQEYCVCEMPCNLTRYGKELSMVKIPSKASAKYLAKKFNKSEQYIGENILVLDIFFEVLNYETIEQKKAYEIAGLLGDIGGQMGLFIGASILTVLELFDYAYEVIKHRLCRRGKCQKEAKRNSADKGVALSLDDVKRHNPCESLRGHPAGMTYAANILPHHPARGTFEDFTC

[3] = molecular target: T3, Acid-sensing ion channel 2 (Mus musculus) (UniProt Q925H0); assay: Inhibition of mouse ASIC2a expressed in genetically engineered-CHO-K1 cells at 10 uM preincubated for 10 mins at pH 7.4 followed by cell stimulation with proton injection at pH 6.5 by electro-chromic fluorescence voltage sensor-based assay relative to control
T3 sequence (whole entry): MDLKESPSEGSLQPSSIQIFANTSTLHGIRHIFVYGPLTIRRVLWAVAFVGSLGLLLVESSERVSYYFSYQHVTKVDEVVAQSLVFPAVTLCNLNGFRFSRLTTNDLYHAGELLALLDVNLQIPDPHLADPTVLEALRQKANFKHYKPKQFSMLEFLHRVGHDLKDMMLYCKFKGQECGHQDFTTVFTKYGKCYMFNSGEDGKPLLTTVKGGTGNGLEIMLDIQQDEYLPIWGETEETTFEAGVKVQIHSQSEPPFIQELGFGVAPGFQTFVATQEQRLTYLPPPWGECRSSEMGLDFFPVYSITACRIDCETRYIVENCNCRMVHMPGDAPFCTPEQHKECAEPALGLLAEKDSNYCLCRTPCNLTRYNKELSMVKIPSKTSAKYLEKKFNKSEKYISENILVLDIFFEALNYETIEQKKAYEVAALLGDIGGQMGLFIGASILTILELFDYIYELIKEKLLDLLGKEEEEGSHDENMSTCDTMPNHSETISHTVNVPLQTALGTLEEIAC

Cortical neurone [4] = assay: Neuroprotective activity in OGD/Rx-induced E16 Wistar rat Primary cortical neurons assessed as increase in cell viability at 2.59 uM incubated for 3 hrs during OGD followed by reoxygenation with compound re-addition measured after 21 hrs by MTT assay; format: functional, cell-based
Cortical neurone [5] = assay: Neuroprotective activity in OGD/Rx-induced E16 Wistar rat Primary cortical neurons assessed as increase in cell viability at 3.14 uM incubated for 3 hrs during OGD followed by compound removal and reoxygenation measured after 21 hrs by MTT assay; format: functional, cell-based
Cortical neurone [6] = assay: Neuroprotective activity in OGD/Rx-induced E16 Wistar rat Primary cortical neurons assessed as increase in cell viability at 3.14 uM incubated for 3 hrs during OGD followed by reoxygenation with compound re-addition measured after 21 hrs by MTT assay; format: functional, cell-based; settings: time 24.0 hrs
Cortical neurone [7] = assay: Neuroprotective activity in OGD/Rx-induced E16 Wistar rat Primary cortical neurons assessed as increase in cell viability at 1.9 uM incubated for 3 hrs during OGD followed by reoxygenation with compound re-addition measured after 21 hrs by MTT assay; format: functional, cell-based; settings: time 24.0 hrs
Mus musculus [8] = assay: Neuroprotective activity in mouse model of middle cerebral artery occlusion-induced transient brain ischemia assessed as decrease in ischemic volume at 0.8 mg/kg, ip administered thrice measured after 24 hrs (reference value: 58 +/- 2.6 %); format: functional; parameters: scale not given: the % may be the effect or the level left
Cortical neurone [9] = assay: Neuroprotective activity in OGD/Rx-induced E16 Wistar rat Primary cortical neurons assessed as increase in cell viability at 0.38 uM incubated for 3 hrs during OGD followed by reoxygenation with compound re-addition measured after 21 hrs by MTT assay; format: functional, cell-based; settings: time 24.0 hrs
Mus musculus [10] = assay: Neuroprotective activity in mouse model of middle cerebral artery occlusion-induced transient brain ischemia assessed as reduction in neurological deficits at 0.8 mg/kg, ip administered thrice measured after 24 hrs; format: functional, organism-based
Cortical neurone [11] = assay: Neuroprotective activity in OGD/Rx-induced E16 Wistar rat Primary cortical neurons assessed as increase in cell viability at 1.41 uM incubated for 3 hrs during OGD followed by reoxygenation with compound re-addition measured after 21 hrs by MTT assay; format: functional, cell-based; settings: time 24.0 hrs
Cortical neurone [12] = assay: Neuroprotective activity in OGD/Rx-induced E16 Wistar rat Primary cortical neurons assessed as increase in cell viability at 1.4 uM incubated for 3 hrs during OGD followed by compound removal and reoxygenation measured after 21 hrs by MTT assay; format: functional, cell-based

Row | Compound | IC50 [1] | inhibition [2] | inhibition [3] | Activity (Cortical neurone [4]) | Activity (Cortical neurone [5]) | Activity (Cortical neurone [6]) | Activity (Cortical neurone [7]) | Activity (Mus musculus [8]) | Activity (Cortical neurone [9]) | Activity (Mus musculus [10]) | Activity (Cortical neurone [11]) | Activity (Cortical neurone [12])
1 | N=C(N)N/N=C/c1ccc(-c2cc(-c3ccc(F)cc3)n[nH]2)cc1 | 2.59 µM | 41.6% | 83.6% | Active |  |  |  |  |  |  |  | 
2 | Cn1nc(-c2ccc(F)cc2)cc1-c1ccc(/C=N/NC(=N)N)cc1 | 3.14 µM | 16.8% | 96.6% |  | Active | Active |  |  |  |  |  | 
3 | COc1ccc(Cn2nc(-c3ccc(F)cc3)cc2-c2ccc(/C=N/NC(=N)N)cc2)cc1 | 1.99 µM |  | 40.3% |  |  |  | Active |  |  |  |  | 
4 | Cl.Cl.N=C(N)N/N=C\c1ccc(-c2cc(-c3ccc(/C=N\NC(=N)N)cc3)[nH]n2)cc1 | 0.729 µM | 9.09% | 61.3% |  |  |  |  | 40.9% | Active | Active |  | 
5 | Cn1nc(-c2ccc(/C=N/NC(=N)N)cc2)cc1-c1ccc(/C=N/NC(=N)N)cc1 | 1.42 µM | 33.1% | 43.9% |  |  |  |  |  |  |  | Active | Active
